Here are results for 27 compounds from patent US20240101570A1 (AMGEN INC., priority 2020, published 2024).

One assay has as its system HCT116 MTAP null cells. Kind of assay: HCT116 MTAP null cell proliferation / viability (CellTiter-Glo, 6 days). Format: cell-based. As to conditions: HCT116-MTAP null, 144 h, HCT116 MTAP null cells, 6 days, CellTiter-Glo; read-out: HCT-116 MTAP null IC50. In short, it runs like this:
(§1)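 CellTiter-Glo luminescence, 6-day exposure, RPMI 1640 + 10% FBS. Dosing: 1:3 series (8-9 pts, top 1 or 10 μM) or 1:2 series (22 pts, top 10 or 50 μM), DMSO control. IC50 = 50% of control via curve fit.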
On the technique in general: ATP-based viability assays read luminescence as a measure of living cells.

A further assay concerns HCT116 WT cells. Nature of the assay: HCT116 WT cell proliferation / viability (CellTiter-Glo, 6 days). The note with it: Homo sapiens, HCT-116, 144 h, HCT116 WT cells, 6 days, CellTiter-Glo; read-out: HCT-116 WT IC50. Type of assay: cell-based. Put shortly: as §1

Broadly, the IC50 is the point on the concentration scale where inhibition reaches its midpoint.

Structures are written as SMILES.

Turning to `Cn1cc(N(Cc2ccc(C(F)(F)F)cc2)C(=O)c2cc3c4c(c(N)nc3cn2)COC4)cn1` [Example 882, 4-amino-N-(1-methyl-1H-pyrazol-4-yl)-N-(4-(trifluoromethyl)benzyl)-1,3-dihydrofuro[3,4-c][1,7]naphthyridine-8-carboxamide 2,2,2-trifluoroacetate], the IC50 in the assay on HCT116 MTAP null cells came to 62 nM; in the assay on HCT116 WT cells, 1340 nM.

`C[C@@H](c1ncccn1)N(Cc1ccc(C(F)(F)F)nn1)C(=O)c1ccc2nc(N)c3c(c2c1)COC3` [Example 440, 4-amino-N-((1S)-1-(2-pyrimidinyl)ethyl)-N-((6-(trifluoromethyl)-3-pyridazinyl)methyl)-1,3-dihydrofuro[3,4-c]quinoline-8-carboxamide]: the figures for the IC50 in the assay with HCT116 MTAP null cells and in the assay with HCT116 WT cells were 461 nM and over 10000 nM, respectively.

`C[C@H](c1ccc(C(F)(F)F)nn1)N(C)C(=O)c1cc2c(cc1C(F)(F)F)nc(N)c1cnn(C)c12` (single isomer, unassigned) [Example 879]: the values for the IC50 with HCT116 MTAP null cells and with HCT116 WT cells were 181 nM and 12300 nM, respectively.

Take `CCN(Cc1ccc(Br)nn1)C(=O)c1ccc2nc(N)c3c(c2c1)COC3` [Example 708, 4-amino-N-((6-bromo-3-pyridazinyl)methyl)-N-ethyl-1,3-dihydrofuro[3,4-c]quinoline-8-carboxamide]: the figures for the IC50 in the assay on HCT116 MTAP null cells and in the assay with HCT116 WT cells were 153 nM and 8220 nM, respectively.

Turning to `COCC(C)N(Cc1ccc(C(F)(F)F)nn1)C(=O)c1cc2c3c(c(N)nc2cn1)COC3` (racemic) [Example 390, 4-amino-N-((2R)-1-methoxy-2-propanyl)-N-((6-(trifluoromethyl)-3-pyridazinyl)methyl)-1,3-dihydrofuro[3,4-c][1,7]naphthyridine-8-carboxamide and 4-amino-N-((2S)-1-methoxy-2-propanyl)-N-((6-(trifluoromethyl)-3-pyridazinyl)methyl)-1,3-dihydrofuro[3,4-c][1,7]naphthyridine-8-carboxamide], the IC50 was 262 nM in the assay on HCT116 MTAP null cells and 9900 nM with HCT116 WT cells.

`CC1OCc2c1c(N)nc1ccc(C(=O)N(Cc3ccc(C(F)(F)F)cn3)Cc3ncccc3F)cc21` (stereo not drawn) [Example 890, 4-amino-N-((3-fluoropyridin-2-yl)methyl)-3-methyl-N-((5-(trifluoromethyl)pyridin-2-yl)methyl)-1,3-dihydrofuro[3,4-c]quinoline-8-carboxamide]: the IC50 in the assay on HCT116 MTAP null cells turned out to be 14 nM; in the assay on HCT116 WT cells, 156 nM.

Take `C[C@H]1OCc2c1c(N)nc1ccc(C(=O)N(Cc3ccc(C(F)(F)F)nn3)CC3CC3)cc21` [Example 333, (3R)-4-amino-N-(cyclopropylmethyl)-3-methyl-N-((6-(trifluoromethyl)-3-pyridazinyl)methyl)-1,3-dihydrofuro[3,4-c]quinoline-8-carboxamide]: the IC50 in the assay on HCT116 MTAP null cells was 24 nM; in the assay on HCT116 WT cells it was 1410 nM.

As for `Cn1cc(N(Cc2ccc(C(F)(F)F)nn2)C(=O)c2cc3c4c(c(N)nc3cn2)COC4)cn1` [Example 711, 4-amino-N-(1-methyl-1H-pyrazol-4-yl)-N-((6-(trifluoromethyl)-3-pyridazinyl)methyl)-1,3-dihydrofuro[3,4-c][1,7]naphthyridine-8-carboxamide], the IC50 in the assay with HCT116 MTAP null cells worked out at 148 nM; in the assay with HCT116 WT cells, 4780 nM.

As for `Nc1nc2ccc(C(=O)N(Cc3ccc(C(F)(F)F)cn3)Cc3ncccc3F)cc2c2ccsc12` [Example 635, 4-amino-N-((3-fluoro-2-pyridinyl)methyl)-N-((5-(trifluoromethyl)-2-pyridinyl)methyl)thieno[2,3-c]quinoline-8-carboxamide], the results for the IC50 in the assay with HCT116 MTAP null cells and with HCT116 WT cells were 73 nM and 1210 nM, respectively.

Consider `CCN(Cc1ccc(C2CC2)cn1)C(=O)c1ccc2nc(N)c3c(c2c1)CO[C@@H]3C` [Example 542, (3R)-4-amino-N-((5-cyclopropyl-2-pyridinyl)methyl)-N-ethyl-3-methyl-1,3-dihydrofuro[3,4-c]quinoline-8-carboxamide], for which the IC50 in the assay with HCT116 MTAP null cells is 35 nM; in the assay on HCT116 WT cells it was 1540 nM.

Turning to `CCN(Cc1ccc(C(F)(F)F)cn1)C(=O)c1ccc2nc(N)c3c(c2c1)COC3C` (stereo not drawn) [Example 930, 4-amino-N-ethyl-3-methyl-N-((5-(trifluoromethyl)pyridin-2-yl)methyl)-1,3-dihydrofuro[3,4-c]quinoline-8-carboxamide], the IC50 in the assay on HCT116 MTAP null cells was 61 nM; with HCT116 WT cells, over 10000 nM.

Turning to `C[C@H]1OCc2c1c(N)nc1ccc(C(=O)N(Cc3ccc(Br)nn3)CC3CC3)cc21` [Example 326, (3R)-4-amino-N-((6-bromo-3-pyridazinyl)methyl)-N-(cyclopropylmethyl)-3-methyl-1,3-dihydrofuro[3,4-c]quinoline-8-carboxamide], the figures for the IC50 in the assay on HCT116 MTAP null cells and in the assay with HCT116 WT cells were 19 nM and 1280 nM, respectively.

`CC(C)N(Cc1ccc(C2CC2)cn1)C(=O)c1ccc2nc(N)c3c(c2c1)COC3` [Example 364, 4-amino-N-((5-cyclopropyl-2-pyridinyl)methyl)-N-(2-propanyl)-1,3-dihydrofuro[3,4-c]quinoline-8-carboxamide]: the figures for the concentration for half-maximal inhibition (IC50) in the assay with HCT116 MTAP null cells and in the assay with HCT116 WT cells were 58 nM and 1760 nM, respectively.

Take `C[C@H](CF)N(Cc1ccc(C#N)cn1)C(=O)c1cc2c3c(c(N)nc2cn1)COC3` (single isomer, unassigned) [Example 820]: the values for the IC50 in the assay with HCT116 MTAP null cells and in the assay on HCT116 WT cells were 7070 nM and over 10000 nM, respectively.

Regarding `CC(C)N(Cc1ccc(Cl)cn1)C(=O)c1cc2c3c(c(N)nc2cn1)COC3` [Example 718, 4-amino-N-((5-chloro-2-pyridinyl)methyl)-N-(2-propanyl)-1,3-dihydrofuro[3,4-c][1,7]naphthyridine-8-carboxamide], the figures for the half-maximal inhibitory concentration (IC50) in the assay on HCT116 MTAP null cells and with HCT116 WT cells were 281 nM and 16400 nM, respectively.

Regarding `CC(C)CN(Cc1ccc(C(F)(F)F)cn1)C(=O)c1ccc2nc(N)c3sccc3c2c1` [Example 637, 4-amino-N-(2-methylpropyl)-N-((5-(trifluoromethyl)-2-pyridinyl)methyl)thieno[2,3-c]quinoline-8-carboxamide], the IC50 with HCT116 MTAP null cells is 212 nM; in the assay with HCT116 WT cells, 3220 nM.

On to `CN(Cc1ccc(F)cn1)C(=O)c1cc2c(cc1F)nc(N)c1cnn(C)c12` [Example 770, 4-amino-7-fluoro-N-((5-fluoro-2-pyridinyl)methyl)-N,1-dimethyl-1H-pyrazolo[4,3-c]quinoline-8-carboxamide], for which the IC50 was determined as 253 nM in the assay with HCT116 MTAP null cells and 19400 nM with HCT116 WT cells.

As for `COC[C@@H](C)N(Cc1ccc(Br)nn1)C(=O)c1ccc2nc(N)c3c(c2c1)CO[C@@H]3C` [Example 468, (3R)-4-amino-N-((6-bromo-3-pyridazinyl)methyl)-N-((2R)-1-methoxy-2-propanyl)-3-methyl-1,3-dihydrofuro[3,4-c]quinoline-8-carboxamide], the IC50 amounted to 8 nM in the assay on HCT116 MTAP null cells and 208 nM with HCT116 WT cells.

`N#Cc1ccc(CN(CC2CC2)C(=O)c2cc3c4c(c(N)nc3cc2Cl)COC4)nc1` [Example 474, 4-amino-7-chloro-N-((5-cyano-2-pyridinyl)methyl)-N-(cyclopropylmethyl)-1,3-dihydrofuro[3,4-c]quinoline-8-carboxamide]: the values for the IC50 with HCT116 MTAP null cells and in the assay with HCT116 WT cells were 30 nM and 1330 nM, respectively.

Consider `CC(C)N(Cc1ccc(C2CC2)cn1)C(=O)c1cc2c3c(c(N)nc2cn1)COC3` [Example 385, 4-amino-N-((5-cyclopropyl-2-pyridinyl)methyl)-N-(2-propanyl)-1,3-dihydrofuro[3,4-c][1,7]naphthyridine-8-carboxamide], for which the values for the IC50 with HCT116 MTAP null cells and in the assay with HCT116 WT cells were 157 nM and 7280 nM, respectively.

As to `CN(Cc1ccc(Cl)cn1)C(=O)c1ccc2nc(N)c3cnn(C)c3c2c1` [Example 523, 4-amino-N-((5-chloro-2-pyridinyl)methyl)-N,1-dimethyl-1H-pyrazolo[4,3-c]quinoline-8-carboxamide], the IC50 with HCT116 MTAP null cells was determined as 72 nM; with HCT116 WT cells, 6790 nM.

For `CC1OCc2c1c(N)nc1ccc(C(=O)N(Cc3ccc(C#N)cn3)C(C)C3CCOCC3)cc21` (stereo not drawn) [Example 892, 4-amino-N-((5-cyanopyridin-2-yl)methyl)-3-methyl-N-(1-(tetrahydro-2H-pyran-4-yl)ethyl)-1,3-dihydrofuro[3,4-c]quinoline-8-carboxamide], the IC50 with HCT116 MTAP null cells was 73 nM; with HCT116 WT cells, 1900 nM.

For `Cc1cc2nc(N)c3cnn(C)c3c2cc1C(=O)N(C)Cc1ccc(F)cn1` [Example 516, 4-amino-N-((5-fluoro-2-pyridinyl)methyl)-N,1,7-trimethyl-1H-pyrazolo[4,3-c]quinoline-8-carboxamide], the IC50 in the assay on HCT116 MTAP null cells amounted to 167 nM; in the assay on HCT116 WT cells, 9320 nM.

With `C[C@H]1OCc2c1c(N)nc1ccc(C(=O)N(C)Cc3ccc(S(F)(F)(F)(F)F)cc3)cc21` [Example 514, (3R)-4-amino-N,3-dimethyl-N-(4-(pentafluoro-lambda~6~- sulfanyl)benzyl)-1,3-dihydrofuro[3,4-c]quinoline-8-carboxamide], the IC50 was 71 nM with HCT116 MTAP null cells and 3250 nM in the assay with HCT116 WT cells.

As for `CN(Cc1ccc(C(F)(F)F)nn1)C(=O)c1cc2c(cc1C(F)(F)F)nc(N)c1cnn(C)c12` [Example 811, 4-amino-N,1-dimethyl-7-(trifluoromethyl)-N-((6-(trifluoromethyl)-3-pyridazinyl)methyl)-1H-pyrazolo[4,3-c]quinoline-8-carboxamide], the concentration for half-maximal inhibition (IC50) with HCT116 MTAP null cells was 645 nM; in the assay on HCT116 WT cells, over 50000 nM.

For the compound `CC(C)N(C(=O)c1cc2c3c(c(N)nc2cc1F)COC3)[C@H](C)c1ccc(C(F)(F)F)cn1` (single isomer, unassigned) [Example 842], the values for the IC50 in the assay with HCT116 MTAP null cells and in the assay with HCT116 WT cells were 115 nM and 3280 nM, respectively.

Turning to `CN(Cc1ccc(C2CC2)cn1)C(=O)c1cc2c3c(c(N)nc2cc1F)COC3` [Example 372, 4-amino-N-((5-cyclopropyl-2-pyridinyl)methyl)-7-fluoro-N-methyl-1,3-dihydrofuro[3,4-c]quinoline-8-carboxamide], the values for the half-inhibitory concentration (IC50) with HCT116 MTAP null cells and in the assay with HCT116 WT cells were 110 nM and 5610 nM, respectively.
